Data on eleven compounds can be found in patent EP2951180B1, “2,6,7,8 SUBSTITUTED PURINES AS HDM2 INHIBITORS” (Merck Sharp & Dohme Corp., priority 2013, dated 2014).

Read-outs that look alike come from different tables or passages of the source.

The target of this assay is T1, HDM2 (Homo sapiens, UniProt Q00987).
T1 construct: Thioredoxin (N); made in house; host or cells: E. coli strain BL21(DE3)Rosetta
The assay can be described thus: HDM2 FRET assay (inhibition of binding of FITC labeled p53-pocket peptide to HDM2). Particulars: read-out: FRET IC50. Summed up:
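Compounds were tested in 10-point serial dilution against 0.5 nM recombinant HDM2 binding 3 nM fluorescein-labeled p53-pocket peptide. Detection used 0.25 nM terbium cryptate anti-6xHis antibody in PBS buffer containing 0.01% BSA and 0.01% Tween-20.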

T1 sequence (Q00987 17-125): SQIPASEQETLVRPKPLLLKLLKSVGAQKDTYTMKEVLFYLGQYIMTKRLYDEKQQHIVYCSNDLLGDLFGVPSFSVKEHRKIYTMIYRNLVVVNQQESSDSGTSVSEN

For orientation: IC50 means the concentration needed to halve the response being measured. For `C[C@@H](Nc1nc(-c2noc(=O)[nH]2)nc2nc(N3CCOC[C@@H]3c3ccccc3)n(C[C@H]3CC[C@H](C)CC3)c12)C1CCC1` [Example 11.67, 3-(6-{[(1R)-1-cyclobutylethyl]amino}-7-[(trans-4-methylcyclohexyl)methyl]-8-[(3S)-3-phenylmorpholin-4-yl]-7H-purin-2-yl)-1,2,4-oxadiazol-5(4H)-one], the IC50 (Table 11) was 0.0108 µM. Consider `C[C@@H](Nc1nc(-c2noc(=O)[nH]2)nc2nc(N3CCCC[C@@H]3c3ccccc3)n(C[C@H]3CC[C@H](C)CC3)c12)C1CCC1` [Example 11.13, 3-(6-{[(1R)-1-cyclobutylethyl]amino}-7-[(trans-4-methylcyclohexyl)methyl]-8-[(2R)-2-phenylpiperidin-1-yl]-7H-purin-2-yl)-1,2,4-oxadiazol-5(4H)-one], for which, for the setting “Table 11”, the IC50 is 0.0267 µM. Regarding `C[C@@H](Nc1nc(-c2noc(=O)[nH]2)nc2nc(CCc3ccccc3)n(C[C@H]3CC[C@H](C)CC3)c12)C1CCC1` [Example 21.24, 3-[6-{[(1R)-1-cyclobutylethyl]amino}-7-[(trans-4-methylcyclohexyl)methyl]-8-(2-phenylethyl)-7H-purin-2-yl]-1,2,4-oxadiazol-5(4H)-one], under “Table 21”, the IC50 came to 0.00802 µM. Take `C[C@@H](Nc1nc(-c2noc(=O)[nH]2)nc2nc(C(F)(F)c3ccccc3)n(C[C@H]3CC[C@H](C)CC3)c12)C1CCC1` [Example 22.79, 3-(6-{[(1R)-1-cyclobutylethyl]amino}-8-[difluoro(phenyl)methyl]-7-[(trans-4-methylcyclohexyl)methyl]-7H-purin-2-yl)-1,2,4-oxadiazol-5(4H)-one]: the IC50 (Table 22) came out at 0.00336 µM.

`Cc1cccc(-c2nc3nc(C(N)=O)nc(N[C@H](C)C4CC4)c3n2Cc2ccc(C(F)(F)F)cc2)c1` [Example 12.27, 6-{[(1R)-1-cyclopropylethyl]amino}-8-(3-methylphenyl)-7-[4-(trifluoromethyl)benzyl]-7H-purine-2-carboxamide]: the IC50 (0.5 nM HDM2 (residues 17 to 125), 3nM peptide, two hour incubation at room temperature) was found to be 2.04 µM. Turning to `C[C@@H]1COCCN1c1nc2nc(-c3noc(=O)[nH]3)nc(N[C@H](C)C3CCC3)c2n1Cc1ccc(C(F)(F)F)cc1` [Example 9.125, 3-(6-{[(1R)-1-cyclobutylethyl]amino}-8-[(3R)-3-methylmorpholin-4-yl]-7-[4-(trifluoromethyl)benzyl]-7H-purin-2-yl)-1,2,4-oxadiazol-5(4H)-one], the IC50 (Table 9) came to 0.00672 µM.

On to `C[C@@H](Nc1nc(-c2noc(=O)[nH]2)nc2nc(N3CCOCC3c3ccccc3Cl)n(C[C@H]3CC[C@H](C)CC3)c12)C1CCC1` (single isomer, unassigned) [Example 11.117], for which the IC50 (Table 11) amounted to 0.00377 µM. For the compound `CC(C)CC1CCCCN1c1nc2nc(C(=O)O)nc(N[C@H](C)C3CCC3)c2n1C[C@H]1CC[C@H](C)CC1` (stereo partly drawn) [Example 11.2, 6-(((R)-1-cyclobutylethyl)amino)-8-(2-isobutylpiperidin-1-yl)-7-((trans-4-methylcyclohexyl)methyl)-7H-purine-2-carboxylic acid], the 50% inhibitory concentration (IC50) (Table 11) was found to be 0.00182 µM.

For the compound `Cc1cccc(-c2nc3nc(C(=O)O)nc(N4CCCC4C4CCC4)c3n2Cc2ccc(C(F)(F)F)cc2)c1` (centres unmarked) [Example 6.92, 6-(2-cyclobutylpyrrolidin-1-yl)-8-(3-methylphenyl)-7-[4-(trifluoromethyl)benzyl]-7H-purine-2-carboxylic acid], the IC50 (Table 6) was found to be 0.352 µM.

With `Cc1cccc(-c2nc3nc(C(=O)O)nc(NC4CCCCC4)c3n2Cc2ccc(C(F)(F)F)cc2)c1` [Example 6.28, 6-(cyclohexylamino)-8-(3-methylphenyl)-7-[4-(trifluoromethyl)benzyl]-7H-purine-2-carboxylic acid], the IC50 (Table 6) was found to be 0.589 µM. Take `Cc1cccc(-c2nc3nc(C(=O)O)nc(N[C@H](C)c4ccc(Cl)cc4)c3n2Cc2ccc(C(F)(F)F)cc2)c1` [Example 6.44, 6-{[(1R)-1-(4-chlorophenyl)ethyl]amino}-8-(3-methylphenyl)-7-[4-(trifluoromethyl)benzyl]-7H-purine-2-carboxylic acid]: the concentration for half-maximal inhibition (IC50) (Table 6) stood at 0.372 µM.
